Experimental data reported in patent US5274076A, “Hydrophilic derivatives, their application to diagnosis and to therapeutics, diagnostic or therapeutic kits and immunological reagents” (Immunotech Partners, priority 1989, dated 1993).
Residues, ends and D or L forms follow the SMILES beside them. Groups on a side chain read outwards from the residue. *: point of attachment. DTPA = O=C(O)CN(CCN(CC(=O)O)CC(=O)O)CCN(CC(=O)O)CC(=O)*

Assays:
[1] = test system: human melanoma cells (A375); experiment: Radioimmunoscintigraphy and organ radioactivity counting of human melanoma grafted on nude mice, pretargeted with anti-melanoma anti-DTPA-indium dual specificity conjugate; format: in vivo; conditions: for specificity of tumour binding: A375 tumour in nude mice
Procedure: Radioimmunoscintigraphy of human melanoma grafted on to nude mice with anti-melanoma anti-DTPA indium dual specificity conjugates and N-α-DTPA-tyrosyl-N-ε-DTPA-lysine labelled with indium 111.
(§1) 3.10^6 human melanoma cells (A375) are injected subcutaneously into the abdomen of nude mice. 3 to 4 weeks later the mice develop tumours of 0.5 to 2 g. The mice are then injected with 2 to 10 μg of dual specificity conjugate prepared by chemical coupling of the F(ab)'2 fragment of a […] anti-melanoma antibody (mouse monoclonal antibody IgG1, kappa) to the reduced F(ab)'2 fragment of an anti-DTPA-indium antibody (mouse monoclonal antibody IgG1, lambda) using the heterobifunctional reagent EMCS.
(§2) Twenty four hours later, mice are injected with 10 μCi of the derivative of Example 1 labelled with indium-111. Images are then produced at selected time intervals using a Sopha Medical Gammatome 2 gamma camera equipped with a medium energy high-resolution collimator or the animals are killed and the major organs and the tumour are measured for radioactivity associated with indium-111 using a gamma counter.

[2] = Tolerance to probes in animals; format: in vivo, BALB/c mice; conditions: 10 nanomoles, observed 16 days; compounds 1 and 2 complexed with non-radioactive indium
Procedure: Doses corresponding to 10 nanomoles, i.e. about 10,000 times more than the dose required for radioimmunoscintigraphy, of compounds 1 and 2 previously complexed with non-radioactive indium and compound 3 are administered to BALB/c mice. These mice are then observed for 16 days under normal breeding conditions.

[3] = test system: human melanoma cells (A375); experiment: Comparison of indium-111-labelled probes in the labelling of tumours in mice (tumour/organ contrast); format: in vivo, nude mice; conditions: for Contrast cpm/g in the tumour/cpm/g in the organ: Heart / Contrast cpm/g in the tumour/cpm/g in the organ: Kidneys / Contrast cpm/g in the tumour/cpm/g in the organ: Liver / Contrast cpm/g in the tumour/cpm/g in the organ: Lung / Contrast cpm/g in the tumour/cpm/g in the organ: Plasma / Contrast cpm/g in the tumour/cpm/g in the organ: Spleen: 3 hours after injection of the radiolabelled probe
Procedure: as §1, §2
Comparison between compound 1 labelled with indium-111 and di-(DNP-lys)-DTPA in the labelling of tumours in mice.
Experiments are carried out as in Example 5 but the mice are given indium-111-labelled di-(DNP-lys)-DTPA (derivative 1 of French Patent Application 86.13146) instead of the derivative 1 described above. Three hours after injection of the probe, the mice are dissected and the gamma radioactivity of the major organs and tumour is counted. It is observed that the tumour accumulates a dose of radioactivity equivalent to that Obtained with the two compounds of Example 1 of the present invention. However, the elimination of the excess radioactivity is substantially more rapid with the compounds of the present invention, as shown by the following table: […]

[4] = indium-111 labelled, after dual specificity conjugate
[5] = radioactivity measured after 24 hours

| Compound | specificity of tumour binding [1] | signs of toxicity [2] | weight gain versus control animals [2] | Contrast cpm/g in the tumour/cpm/g in the organ: Heart [3] | Contrast cpm/g in the tumour/cpm/g in the organ: Kidneys [3] | Contrast cpm/g in the tumour/cpm/g in the organ: Liver [3] | Contrast cpm/g in the tumour/cpm/g in the organ: Lung [3] | Contrast cpm/g in the tumour/cpm/g in the organ: Plasma [3] | Contrast cpm/g in the tumour/cpm/g in the organ: Spleen [3] | other results |
| --- | --- | --- | --- | --- | --- | --- | --- | --- | --- | --- |
| O=C(O)CN(CCN(CC(=O)O)CC(=O)O)CCN(CC(=O)O)CC(=O)NCCCC[C@H](NC(=O)[C@H](Cc1ccc(O)cc1)NC(=O)CN(CCN(CCN(CC(=O)O)CC(=O)O)CC(=O)O)CC(=O)O)C(=O)O [Example 1, N-α-DTPA-tyrosyl-N-ε-DTPA-lysine] ({DTPA}-Tyr-Lys(DTPA)-OH) | specific | No sign of toxicity | not significantly different | 14.9 | 3.5 | 10.8 | 8.2 | 1.7 | 12.7 | tumour accumulation of radioactivity without dual specificity conjugate or with conjugate specific for another tumour antigen ([1]; control without or with irrelevant conjugate): did not accumulate significant amounts of radioactivity; time after injection at which tumours can be observed on gamma camera images ([1]; indium-111 labelled, 10 μCi, 24 h after dual specificity conjugate): Only a few minutes; non-specific accumulation of radioactivity [1, 4]: essentially limited to the kidneys; time in which a large majority of the circulating radioactivity is eliminated [1, 4]: less than 24 hours; time in which radioactivity bound to the tumour is established [1, 4]: within a few hours; time radioactivity bound to the tumour remains stable [1, 4]: at least two days; tumour/organ ratio (T/O), all organs except the kidneys [1, 5]: > 3; tumour/organ ratio (T/O), kidneys [1, 5]: 0.7 |
| O=C(O)CN(CCN(CC(=O)O)CC(=O)O)CCN(CC(=O)O)CC(=O)NCC(=O)NCCCC[C@H](NC(=O)CNC(=O)CN(CCN(CCN(CC(=O)O)CC(=O)O)CC(=O)O)CC(=O)O)C(=O)N[C@@H](Cc1ccc(O)cc1)C(=O)O [Example 2, N-α-N-ε-di-(DTPA-glycyl)-lysyl-tyrosine] ({DTPA}-Gly-Lys([Gly-DTPA])-Tyr-OH) | – | No sign of toxicity | not significantly different | – | – | – | – | – | – | – |
| O=C(CCC(=O)NCC(=O)NCCCC[C@H](NC(=O)CNC(=O)CCC(=O)NCCc1cnc[nH]1)C(=O)N[C@@H](Cc1ccc(O)cc1)C(=O)O)NCCc1cnc[nH]1 [Example 3, N-α-N-ε-di-(histamine-succinyl-glycyl)-lysyl-tyrosine] | – | No sign of toxicity | not significantly different | – | – | – | – | – | – | – |
| DTPA [indium-111-labelled DTPA, reference compound] | little specific binding is observed | – | – | – | – | – | – | – | – | elimination/excretion of radioactivity ([1]; mouse, in vivo): excreted very rapidly |
| di-(DNP-lys)-DTPA [derivative of the prior art] | – | – | – | 2.1 | 1.0 | 1.3 | 0.9 | 0.2 | 1.8 | dose of radioactivity accumulated by the tumour compared with Example 1 ([3]; 3 hours after injection, indium-111 labelled): equivalent |
